Reference: the supplement of paper PMC11061612

Legend:
Experiment in all cases: combination Emax (second highest fraction inhibited in the dose matrix, 72 h); higher = more inhibition; extreme values may be limits of the assay
[1] = tested on: BHT-101 (Thyroid Gland Carcinoma)
Outline: (§1)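 Bliss excess equals the observed combination effect minus the expected value EA + EB − EA·EB, where EA and EB are the effects of each agent alone. Combination Emax is the second-highest inhibition within the matrix. Inhibition was scaled from CellTiter-Glo 2.0 luminescence, with 0 set by vehicle wells and 1 by blank wells, after 72 hours of two-drug dosing of cells plated in 1536-well plates.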

[2] = tested on: BxPC-3 (Pancreatic Carcinoma)
Outline: as §1

[3] = tested on: CPC-N (Small Cell Lung Carcinoma)
Outline: as §1

[4] = tested on: DBTRG-05MG (Glioblastoma)
Outline: as §1

ES6 (Ewing's Sarcoma) = tested on: ES6 (Ewing's Sarcoma)
Outline: as §1

[5] = tested on: IA-LM (Non-Small Cell Lung Carcinoma)
Outline: as §1

[6] = tested on: LS-1034 (Colorectal Carcinoma)
Outline: as §1

[7] = tested on: MONO-MAC-6 (Acute Myeloid Leukemia)
Outline: as §1

NCI-H2373 (Mesothelioma) = tested on: NCI-H2373 (Mesothelioma)
Outline: as §1

[8] = tested on: NCI-H596 (Other Solid Carcinomas)
Outline: as §1

[9] = tested on: OAW-28 (Ovarian Carcinoma)
Outline: as §1

[10] = tested on: OVCAR-3 (Ovarian Carcinoma)
Outline: as §1

[11] = tested on: P32-ISH (Burkitt's Lymphoma)
Outline: as §1

[12] = tested on: SCC-4 (Oral Cavity Carcinoma)
Outline: as §1

SK-N-SH (Neuroblastoma) = tested on: SK-N-SH (Neuroblastoma)
Outline: as §1

[13] = tested on: SNU-407 (Colorectal Carcinoma)
Outline: as §1

[14] = tested on: SUP-M2 (T-Cell Non-Hodgkin's Lymphoma)
Outline: as §1

T47D (Breast Carcinoma) = tested on: T47D (Breast Carcinoma)
Outline: as §1

[15] = tested on: T84 (Colorectal Carcinoma)
Outline: as §1

[16] = tested on: TUR (Acute Myeloid Leukemia)
Outline: as §1

Compound	combination Emax [1]	combination Emax [2]	combination Emax [3]	combination Emax [4]	combination Emax (ES6 (Ewing's Sarcoma))	combination Emax [5]	combination Emax [6]	combination Emax [7]	combination Emax (NCI-H2373 (Mesothelioma))	combination Emax [8]	combination Emax [9]	combination Emax [10]	combination Emax [11]	combination Emax [12]	combination Emax (SK-N-SH (Neuroblastoma))	combination Emax [13]	combination Emax [14]	combination Emax (T47D (Breast Carcinoma))	combination Emax [15]	combination Emax [16]
COc1cccc(OCCCN)c1-c1cc(Nc2cnc(C#N)cn2)n[nH]1 [Prexasertib] + CCc1c2c(nc3ccc(O)cc13)-c1cc3c(c(=O)n1C2)COC(=O)[C@]3(O)CC [SN-38] (first compound max 1 µM, 7x7, partner max 0.3 µM)	0.91	0.796	1	0.624	0.837	0.867	0.897	1	0.642	0.735	1	0.963	1	0.917	0.947	0.639	1	0.784	0.866	1
COc1cccc(OCCCN)c1-c1cc(Nc2cnc(C#N)cn2)n[nH]1 [Prexasertib] + CN(C)CCCOc1ccc(-c2ccc3ncc4c(c3c2)n(C2CCOCC2)c(=O)n4C)cn1 [AZD0156] (first compound max 1 µM, 7x7, partner max 1 µM)	0.799	0.66	1	0.409	0.573	0.42	0.724	0.963	0.423	0.414	0.563	0.758	1	0.63	0.876	0.653	1	0.426	0.815	1
COc1cccc(OCCCN)c1-c1cc(Nc2cnc(C#N)cn2)n[nH]1 [Prexasertib] + C[C@@H]1COCCN1C2=NC(=NC(=C2)C3(CC3)[S@](=N)(=O)C)C4=C5C=CNC5=NC=C4 [AZD6738] (first compound max 1 µM, 7x7, partner max 10 µM)	0.78	0.633	1	0.281	0.61	0.459	0.71	0.993	0.644	0.487	0.546	0.773	1	0.676	0.901	0.757	1	0.374	0.815	1
COc1cccc(OCCCN)c1-c1cc(Nc2cnc(C#N)cn2)n[nH]1 [Prexasertib] + Cc1cc2ncnn2cc1Nc1ncc2c(n1)n(C1CCOCC1)c(=O)n2C [AZD7648] (first compound max 1 µM, 7x7, partner max 10 µM)	0.748	0.68	1	0.315	0.625	0.489	0.685	0.976	0.531	0.438	0.462	0.784	1	0.609	0.844	0.597	1	0.512	0.785	1
COc1cccc(OCCCN)c1-c1cc(Nc2cnc(C#N)cn2)n[nH]1 [Prexasertib] + O=C(c1cc(Cc2n[nH]c(=O)c3ccccc23)ccc1F)N1CCN(C(=O)C2CC2)CC1 [Olaparib] (first compound max 1 µM, 7x7, partner max 10 µM)	0.774	0.682	0.984	0.326	0.58	0.463	0.685	0.976	0.378	0.642	0.48	0.821	1	0.588	0.834	0.583	1	0.479	0.826	1
COc1cc2c(cc1OCCCCCOc1cc3c(cc1OC)C(=O)N1C=C(C)C[C@H]1C=N3)N=C[C@@H]1CC(C)=CN1C2=O [SG3199] + O=C(c1cc(Cc2n[nH]c(=O)c3ccccc23)ccc1F)N1CCN(C(=O)C2CC2)CC1 [Olaparib] (first compound max 0.001 µM, 7x7, partner max 10 µM)	0.193	0.101	0.243	0.114	0.144	0.139	0.0272	0.234	0.242	0.202	0.245	0.127	0.247	0.0768	0.274	0.182	0.839	0.164	0.0664	0.112
